Results: patent US20240376094A2, “SELECTIVE BCL-XL PROTAC COMPOUNDS AND METHODS OF USE” (Les Laboratoires Servier, priority 2021, published 2024)

Tested on: MOLT-4 cells
Test: MOLT-4 cell viability, CTG assay
Assay type: cell-based
Details: Homo sapiens, MOLT-4, 48 h
How it was run: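 Cells grown in RPMI 1640 with 10% FBS at 37° C, 5% CO2, then exposed to compounds for 48 h (11-point 5-fold dilution, triplicates). ATP measured by CellTiter-Glo luminescence; IC50 from four-parameter fit versus control, mean of ≥2 independent experiments.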

SMILES	IC50 [nM]
Cc1ncsc1-c1ccc(CNC(=O)C2C[C@@H](O)CN2C(=O)C(NC(=O)CCCCCC(=O)N2CCN(CC#Cc3ccc(OCCCc4sc(N5CCCc6c5nnc(Nc5nc7ccccc7s5)c6C)nc4C(=O)O)c(F)c3)CC2)C(C)(C)C)cc1 (stereo in doubt) [Example 15, 2-[3-(1,3-benzothiazol-2-ylamino)-4-methyl-6,7-dihydro-5H-pyrido[2,3-c]pyridazin-8-yl]-5-[3-[2-fluoro-4-[3-[4-[7-[[(1S)-1-[(2S,4R)-4-hydroxy-2-[[4-(4-methylthiazol-5-yl)phenyl]methylcarbamoyl]pyrrolidine-1-carbonyl]-2,2-dimethyl-propyl]amino]-7-oxo-heptanoyl]piperazin-1-yl]prop-1-ynyl]phenoxy]propyl] thiazole-4-carboxylic acid]	22.6
Cc1ncsc1-c1ccc([C@H](C)NC(=O)C2CC(O)CN2C(=O)C(NC(=O)CCCCCCCCCCCN2CCN(CC#Cc3ccc(OCCCc4sc(N5CCCc6c5nnc(Nc5nc7ccccc7s5)c6C)nc4C(=O)O)c(F)c3)CC2)C(C)(C)C)cc1 (stereo in doubt) [Example 31, 2-[3-(1,3-benzothiazol-2-ylamino)-4-methyl-6,7-dihydro-5H-pyrido[2,3-c]pyridazin-8-yl]-5-[3-[2-fluoro-4-[3-[4-[12-[[(1S)-1-[(2S,4R)-4-hydroxy-2-[[(1S)-1-[4-(4-methylthiazol-5-yl)phenyl]ethyl]carbamoyl]pyrrolidine-1-carbonyl]-2,2-dimethyl-propyl]amino]-12-oxo-dodecyl]piperazin-1-yl]prop-1-ynyl]phenoxy]propyl] thiazole-4-carboxylic acid]	7
Cc1ncsc1-c1ccc([C@H](C)NC(=O)[C@@H]2C[C@@H](O)CN2C(=O)[C@@H](NC(=O)CCCCCCCCCCCCCCCN(C)CCOC23CC4(C)CC(C)(CC(Cn5ncc(-c6ccc(N7CCCc8c7nnc(Nc7nc9ccccc9s7)c8C)nc6C(=O)O)c5C)(C4)C2)C3)C(C)(C)C)cc1 [Example 1, 6-[3-(1,3-benzothiazol-2-ylamino)-4-methyl-6,7-dihydro-5H-pyrido[2,3-c]pyridazin-8-yl]-3-[1-[[3-[2-[[16-[[(1S)-1-[(2S,4R)-4-hydroxy-2-[[(1S)-1-[4-(4-methylthiazol-5-yl)phenyl]ethyl]carbamoyl]pyrrolidine-1-carbonyl]-2,2-dimethyl-propyl]amino]-16-oxo-hexadecyl]-methyl-amino]ethoxy]-5,7-dimethyl-1-adamantyl]methyl]-5-methyl-pyrazol-4-yl]pyridine-2-carboxylic acid]	3.41
Cc1ncsc1-c1ccc([C@H](C)NC(=O)[C@@H]2C[C@@H](O)CN2C(=O)[C@@H](NC(=O)CCCCCCCCN(C)CCOC23CC4(C)CC(C)(CC(Cn5ncc(-c6ccc(N7CCCc8c7nnc(Nc7nc9ccccc9s7)c8C)nc6C(=O)O)c5C)(C4)C2)C3)C(C)(C)C)cc1 [Example 5, 6-[3-(1,3-benzothiazol-2-ylamino)-4-methyl-6,7-dihydro-5H-pyrido[2,3-c]pyridazin-8-yl]-3-[1-[[3-[2-[[9-[[(1S)-1-[(2S,4R)-4-hydroxy-2-[[(1S)-1-[4-(4-methylthiazol-5-yl)phenyl]ethyl]carbamoyl]pyrrolidine-1-carbonyl]-2,2-dimethyl-propyl]amino]-9-oxo-nonyl]-methyl-amino]ethoxy]-5,7-dimethyl-1-adamantyl]methyl]-5-methyl-pyrazol-4-yl]pyridine-2-carboxylic acid]	15.8
Cc1ncsc1-c1ccc([C@H](C)NC(=O)[C@@H]2C[C@@H](O)CN2C(=O)[C@@H](NC(=O)CCCCCCCN(C)CCOC23CC4(C)CC(C)(CC(Cn5ncc(-c6ccc(N7CCCc8c7nnc(Nc7nc9ccccc9s7)c8C)nc6C(=O)O)c5C)(C4)C2)C3)C(C)(C)C)cc1 [Example 6, 6-[3-(1,3-benzothiazol-2-ylamino)-4-methyl-6,7-dihydro-5H-pyrido[2,3-c]pyridazin-8-yl]-3-[1-[[3-[2-[[8-[[(1S)-1-[(2S,4R)-4-hydroxy-2-[[(1S)-1-[4-(4-methylthiazol-5-yl)phenyl]ethyl]carbamoyl]pyrrolidine-1-carbonyl]-2,2-dimethyl-propyl]amino]-8-oxo-octyl]-methyl-amino]ethoxy]-5,7-dimethyl-1-adamantyl]methyl]-5-methyl-pyrazol-4-yl]pyridine-2-carboxylic acid]	28.7

Target: T1, endogenous BCL-xL (Homo sapiens, UniProt Q07817)
T1 construct: endogenous in cells; host or cells: COR-L105 (ECACC No. 92031918); NCI-H1650 (ATCC No. CRL-5883)
Test: Degradation of endogenous BCL-xL in NCI-H1650 (ProteinSimple Jess)
Assay type: cell-based
Details: NCI-H1650, dose 10 nM, 24 hours
Experimental: The BCL-xL degrader low molecular weight compounds were tested against two endogenous cancer cell lines: • COR-L105: ECACC No. 92031918 cultured in RPMI-1640+10% FBS • NCI-H1650: (ATCC No. CRL-5883 cultured in RPMI-1640+10% FBS
The ability of the BCL-xL degrader low molecular weight compounds to degrade endogenous BCL-xL was assessed using the ProteinSimple 2-40 kDa Jess Separation Module.
Cell lines were cultured in media that is optimal for their growth at 5% CO2, 37° C. in a tissue culture incubator. Prior to seeding for the degradation assay, the cells were split at least 2 days before the assay to ensure optimal growth density. On the day of seeding, adherent cells were lifted off tissue culture flasks using 0.25% trypsin. Cell viability and cell density were determined using a cell counter (Vi-Cell XR Cell Viability Analyzer, Beckman Coulter). Cells with higher than 85% viability were seeded for the assay.
The COR-L105 and the NCI-H1650 cell line were seeded in 6-well clear TC-treated multiple well plates (Costar® cat. #3516). Cells were seeded at a density of 2,000,000 cells per well in 2.5 mL of standard growth media. Plates were incubated at 5% CO2, 37° C. overnight in a tissue culture incubator. On the day of dosing, BCL-xL degrader low molecular weight compounds and a BCL-xL inhibitor control were prepared at 6× in standard growth media. […] A control well of untreated cells was also included in the study. Each drug concentration was tested in singlet. Plates were incubated at 5% CO2, 37° C. for 24 hours in a tissue culture incubator.
After 24 hours, the adherent cells were lifted off tissue culture plates using 0.25% trypsin. Standard growth media was added to quench the trypsin and centrifuged for 5 minutes at 1500 rpm. […]
Protein was quantified using a Pierce™ BCA Protein Assay Kit (ThermoFisher, cat #23225) following the manufacturer's instructions. […] A SpectraMax M Series Multi-Mode Microplate Reader was used to measure the absorbance at 562 nm. […] Only values that fell within the range of the standard curve were accepted for quantification. […]

T1 sequence (Q07817 whole entry): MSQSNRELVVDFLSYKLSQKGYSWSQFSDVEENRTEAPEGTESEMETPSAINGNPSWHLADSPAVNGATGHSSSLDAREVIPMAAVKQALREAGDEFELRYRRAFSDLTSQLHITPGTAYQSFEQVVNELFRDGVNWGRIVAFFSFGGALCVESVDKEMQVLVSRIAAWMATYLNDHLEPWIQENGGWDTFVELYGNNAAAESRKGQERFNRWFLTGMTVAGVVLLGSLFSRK

SMILES	% BCL-xL vs. Untreated, NCI-H1650 [%]
Cc1ncsc1-c1ccc([C@H](C)NC(=O)[C@@H]2C[C@@H](O)CN2C(=O)[C@@H](NC(=O)CCCCCCCCCCC(=O)N2CCN(CC#Cc3ccc(OCCCc4sc(N5CCCc6c5nnc(Nc5nc7ccccc7s5)c6C)nc4C(=O)O)c(F)c3)CC2)C(C)(C)C)cc1 [Example 46, 2-(3-(benzo[d]thiazol-2-ylamino)-4-methyl-6,7-dihydropyrido [2,3-c]pyridazin-8(5H)-yl)-5-(3-(2-fluoro-4-(3-(4-(12-(((S)-1-((2S,4R)-4-hydroxy-2-(((S)-1-(4-(4-methylthiazol-5-yl)phenyl)ethyl)carbamoyl)pyrrolidin-1-yl)-3,3-dimethyl-1-oxobutan-2-yl)amino)-12-oxododecanoyl)piperazin-1-yl)prop-1-yn-1-yl)phenoxy)propyl)thiazole-4-carboxylic acid]	16.23
Cc1ncsc1-c1ccc(CNC(=O)[C@@H]2C[C@@H](O)CN2C(=O)[C@@H](NC(=O)CCCCCCCCCCC(=O)N2CCN(CC#Cc3ccc(OCCCc4sc(N5CCCc6c5nnc(Nc5nc7ccccc7s5)c6C)nc4C(=O)O)c(F)c3)CC2)C(C)(C)C)cc1 [Example 48, 2-(3-(benzo[d]thiazol-2-ylamino)-4-methyl-6,7-dihydropyrido [2,3-c]pyridazin-8(5H)-yl)-5-(3-(2-fluoro-4-(3-(4-(12-(((S)-1-((2S,4R)-4-hydroxy-2-((4-(4-methylthiazol-5-yl)benzyl)carbamoyl)pyrrolidin-1-yl)-3,3-dimethyl-1-oxobutan-2-yl)amino)-12-oxododecanoyl)piperazin-1-yl)prop-1-yn-1-yl)phenoxy)propyl)thiazole-4-carboxylic acid]	1.05
Cc1ncsc1-c1ccc([C@H](C)NC(=O)[C@@H]2C[C@@H](O)CN2C(=O)[C@@H](NC(=O)CCCCCCCCCCCN2CCN(CC#Cc3ccc(OCCCc4sc(N5CCCc6c5nnc(Nc5nc7ccccc7s5)c6C)nc4C(=O)O)c(F)c3)CC2)C(C)(C)C)cc1 [Example 51, 2-(3-(benzo[d]thiazol-2-ylamino)-4-methyl-6,7-dihydropyrido [2,3-c]pyridazin-8(5H)-yl)-5-(3-(2-fluoro-4-(3-(4-(12-(((S)-1-((2S,4R)-4-hydroxy-2-(((S)-1-(4-(4-methylthiazol-5-yl)phenyl)ethyl)carbamoyl)pyrrolidin-1-yl)-3,3-dimethyl-1-oxobutan-2-yl)amino)-12-oxododecyl)piperazin-1-yl)prop-1-yn-1-yl)phenoxy)propyl)thiazole-4-carboxylic acid]	9.22
